Assay results from patent publication US4749702A, “Antidepressive substituted N-[(4-piperidinyl)alkyl] bicyclic condensed oxazol- and thiazolamines” (Janssen Pharmaceutica N. V., priority 1987, dated 1988).

Each compound was assayed on Loss in righting reflex induced by xylazine (assay: Loss of righting reflex test (xylazine antagonism)). Details: female Wistar rats 220-270 g; test compound 60 min before observation; xylazine 20 mg/kg i.p. 30 min later; route of test compound not given.
Type: in vivo, Female Wistar strain rats
Method: Loss of righting reflex test Female Wistar strain rats weighing 220-270 g were used throughout the test. Sixty minutes before observations were made, the rats were treated with a test compound or with a saline solution. Thirty minutes later, all animals received an intraperitoneal injection of 20 mg/kg body weight of xylazine. […] The degree of which the righting reflex was compromised, was scored 0-3 depending on the animal's response to it being put gently on its back on a flat surface. Score 3: complete loss of righting reflexes; score 2: some righting movements occur, but these fail to result in a 180° turn of the body; score 1: righting movements do result in a 180° turn of the body, but the process takes noticeably more time than it does in normal animals; score 0: righting is effected with a speed similar to that of normal rats.

c1ccc2c(c1)OCC(CN1CCC(CNc3nc4cccnc4s3)CC1)O2 (stereo not drawn) [Compound 8, N-[[1-[(2,3-dihydro-1,4-benzodioxin-2-yl)methyl]-4-piperidinyl]methyl]thiazolo[5,4-b]pyridin-2-amine] was tested. Which “Loss in righting reflex induced by xylazine ED50-values (dose producing loss of righting reflex scores <3 in 50% of the tested animals)” value did it give?
The value was 0.08 mg/kg.

With c1ccc2c(c1)OC[C@H](CN1CCC(CNc3nc4cccnc4s3)CC1)O2 [Compound 13, (-)-(S)-N-[[1[(2,3-dihydro-1,4-benzodioxin-2-yl)methyl]-4-piperidinyl]methyl]thiazolo[5,4-b]pyridin-2-amine] as the compound, how does the “Loss in righting reflex induced by xylazine ED50-values (dose producing loss of righting reflex scores <3 in 50% of the tested animals)” value read?
Its value is 0.08 mg/kg.

For Fc1ccc2nc(NCC3CCN(CC4COc5ccccc5O4)CC3)sc2c1 (stereo not drawn) [Compound 19, N-[[1-[(2,3-dihydro-1,4-benzodioxin-2-yl)methyl]-4-piperidinyl]methyl]-6-fluoro-2-benzothiazolamine], which “Loss in righting reflex induced by xylazine ED50-values (dose producing loss of righting reflex scores <3 in 50% of the tested animals)” value is on record?
The value was 0.31 mg/kg.

With Fc1cccc2sc(NCC3CCN(CC4COc5ccccc5O4)CC3)nc12 (stereo not drawn) [Compound 20, N-[[1-[(2,3-dihydro-1,4-benzodioxin-2-yl)methyl]-4-piperidinyl]methyl]-4-fluoro-2-benzothiazolamine] as the compound, how does the “Loss in righting reflex induced by xylazine ED50-values (dose producing loss of righting reflex scores <3 in 50% of the tested animals)” value read?
The value was 0.066 mg/kg.

With Cc1ccc2nc(NCC3CCN(CC4COc5ccccc5O4)CC3)sc2c1 (stereo not drawn) [Compound 21, N-[[1-[(2,3-dihydro-1,4-benzodioxin-2-yl)methyl]-4-piperidinyl]methyl]-6-methyl-2-benzothiazolamine] as the compound, how does the “Loss in righting reflex induced by xylazine ED50-values (dose producing loss of righting reflex scores <3 in 50% of the tested animals)” value read?
The value was 0.14 mg/kg.

Which “Loss in righting reflex induced by xylazine ED50-values (dose producing loss of righting reflex scores <3 in 50% of the tested animals)” value does the source give for COc1cc2nc(NCC3CCN(CC4COc5ccccc5O4)CC3)sc2c(OC)c1OC (stereo not drawn) [Compound 26, N-[[1-[(2,3-dihydro-1,4-benzodioxin-2-yl)methyl]-4-piperidinyl]methyl]-5,6,7-trimethoxy-2-benzothiazolamine (E)-2-butenedioate(2:3)] here?
The value was 0.08 mg/kg.

With COc1cc2nc(NCC3CCN(CC4COc5ccccc5O4)CC3)sc2cc1OC (stereo not drawn) [Compound 27, N-[[1-[(2,3-dihydro-1,4-benzodioxin-2-yl)methyl]-4-piperidinyl]methyl]-5,6-dimethoxy-2-benzothiazolamine] as the compound, how does the “Loss in righting reflex induced by xylazine ED50-values (dose producing loss of righting reflex scores <3 in 50% of the tested animals)” value read?
Its value is 0.16 mg/kg.

With c1ccc2c(c1)OCC(CN1CCC(CNc3nc4cc5c(cc4s3)OCO5)CC1)O2 (stereo not drawn) [Compound 28, N-[[1-[(2,3-dihydro-1,4-benzodioxin-2-yl)methyl]-4-piperidinyl]methyl]-1,3-dioxolo[4,5-f]benzothiazol-6-amine] as the compound, how does the “Loss in righting reflex induced by xylazine ED50-values (dose producing loss of righting reflex scores <3 in 50% of the tested animals)” value read?
Its value is 0.31 mg/kg.

With c1ccc2c(c1)OCC(CN1CCC(CCNc3nc4ccccc4s3)CC1)O2 (stereo not drawn) [Compound 30, N-[2-[1[(2,3-dihydro-1,4-benzodioxin-2-yl)methyl]-4-piperidinyl]ethyl]-2-benzothiazolamine] as the compound, how does the “Loss in righting reflex induced by xylazine ED50-values (dose producing loss of righting reflex scores <3 in 50% of the tested animals)” value read?
The value was 0.31 mg/kg.

Which “Loss in righting reflex induced by xylazine ED50-values (dose producing loss of righting reflex scores <3 in 50% of the tested animals)” value does the source give for COc1cc(OC)c2sc(NCC3CCN(C[C@H]4COc5ccccc5O4)CC3)nc2c1 [Compound 34] here?
The value was 0.31 mg/kg.

Which “Loss in righting reflex induced by xylazine ED50-values (dose producing loss of righting reflex scores <3 in 50% of the tested animals)” value does the source give for COc1cc2nc(NCC3CCN(CC4CCc5ccccc5O4)CC3)sc2cc1OC (stereo not drawn) [Compound 35] here?
Its value is 0.31 mg/kg.

With Cl.Cl.c1ccc2c(c1)OCC(CN1CCC(CNc3nc4ccccc4o3)CC1)O2 (stereo not drawn) [Compound 42, N-[[1-[(2,3-dihydro-1,4-benzodioxin-2-yl)methyl]-4-piperidinyl]methyl]-2-benzoxazolamine dihydrochloride] as the compound, how does the “Loss in righting reflex induced by xylazine ED50-values (dose producing loss of righting reflex scores <3 in 50% of the tested animals)” value read?
Its value is 0.31 mg/kg.

For Cl.Cl.Oc1ccc2nc(NCC3CCN(CC4COc5ccccc5O4)CC3)sc2c1 (stereo not drawn) [Compound 57, 2-[[[1-[(2,3-dihydro-1,4-benzodioxin-2-yl)methyl]-4-piperidinyl]methyl]amino]-6-benzothiazolol dihydrochloride], which “Loss in righting reflex induced by xylazine ED50-values (dose producing loss of righting reflex scores <3 in 50% of the tested animals)” value is on record?
Its value is 0.31 mg/kg.

c1ccc2c(c1)OCC(CN1CCC(CNc3nc4cnccc4s3)CC1)O2 (stereo not drawn) [Compound 58, N-[[1-[(2,3-dihydro-1,4-benzodioxin-2-yl)methyl]-4-piperidinyl]methyl]thiazolo[4,5-c]pyridin-2-amine] was tested. Which “Loss in righting reflex induced by xylazine ED50-values (dose producing loss of righting reflex scores <3 in 50% of the tested animals)” value did it give?
The value was 0.080 mg/kg.

COc1ccc2nc(NCC3CCN(CC4COc5ccccc5O4)CC3)sc2c1 (stereo not drawn) [Compound 68, N-[[1-[(2,3-dihydro-1,4-benzodioxin-2-yl)methyl]-4-piperidinyl]methyl]-6-methoxy-2-benzothiazolamine] was tested. Which “Loss in righting reflex induced by xylazine ED50-values (dose producing loss of righting reflex scores <3 in 50% of the tested animals)” value did it give?
Its value is 0.16 mg/kg.
